Seven compounds from US8410302B2, “Methoxyimino compounds and fungicide composition comprising same” (Kyung Nong Corporation, priority 2007, dated 2013) can be followed below.

One test has as its system Botrytis cinerae. The test is described as follows: Fungicidal activity against cucumber gray mold rot (CGM) disease, control value. It is filed as in vivo. To be noted: for CGM control value (C.V.) / pest or weed control at 100 ppm: 100 ppm.
Another test relates to Phytophthora infestans. Put plainly: whole plant or invertebrate. It is filed as in vivo. To be noted: for TLB control value (C.V.): tomato late blight.
The subject of test [1] is Pyricularia oryzae Carvara KA301. Put plainly: whole plant or invertebrate. It is filed as in vivo. The note with it: for RCB control value (C.V.): rice blast.
A further test has as its system Puccinia recondita. The test is described as follows: Fungicidal activity against wheat leaf rust (WLR) disease, control value. It is filed as in vivo.
Another test deals with Rhizoctonia solani AG-1. The test is described as follows: Fungicidal activity against rice sheath blight (RSB) disease, control value. The note with it: for RSB control value (C.V.): 100 ppm, rice sheath blight.
The subject of the next test is Erysiphae graminis. The test is described as follows: Fungicidal activity against barley powdery mildew (BPM) disease, control value. It is filed as in vivo.
[2] abbreviates: Botrytis, read-out: CGM control value (C.V.).
Where [3] appears, read: Phytophthora infestans, in Solanum lycopersicum, read-out: TLB control value (C.V.).
Setting [4] is: Pyricularia oryzae, read-out: RCB control value (C.V.).
Setting [5] is: Puccinia recondita, 2 ppm, read-out: WLR control value (C.V.).
Setting [6] is: Puccinia recondita, 10 ppm, read-out: WLR control value (C.V.).
[7] abbreviates: Puccinia recondita, 50 ppm, read-out: WLR control value (C.V.).
The mark [8] stands for this setting: Puccinia recondita, 100 ppm, read-out: WLR control value (C.V.).
Where [9] appears, read: Rhizoctonia solani, AG1, in Oryza sativa, read-out: RSB control value (C.V.).
[10] abbreviates: 168 h, 2 ppm, read-out: BPM control value (C.V.).
Setting [11] is: 168 h, 10 ppm, read-out: BPM control value (C.V.).
[12] abbreviates: 168 h, 50 ppm, read-out: BPM control value (C.V.).
Setting [13] is: 168 h, 100 ppm, read-out: BPM control value (C.V.).

Where two headings read alike, the source gives them in different places.

As to `CNC(=O)/C(=N/OC)c1ccccc1COc1ccc(C=C(F)Cl)cc1` [Example 14, (2E)-2-(2-((4-(2-chloro-2-difluorovinyl)phenoxy)methyl)phenyl)-2-methoxyimino-N-methylacetamide], in the test with Botrytis cinerae (cucumber gray mold rot), the “CGM control value (C.V.)” value is listed as 40%. The “TLB control value (C.V.)” value in the test with Phytophthora infestans (50 ppm) is 35%; with Phytophthora infestans (100 ppm), 98%. Moreover, the “RCB control value (C.V.)” value was 90% in test [1] (50 ppm) and 95% in test [1] (100 ppm). In the test with Puccinia recondita (100 ppm, wheat leaf rust), the “WLR control value (C.V.)” value was 72%. In addition, in the test on Rhizoctonia solani AG-1, the “RSB control value (C.V.)” value worked out at 15%. For the same compound, the “BPM control value (C.V.)” value in the test with Erysiphae graminis (100 ppm, barley powdery mildew) is 60%.
With `CO/N=C(/C(=O)OC)c1ccccc1COc1c(OC)ccc(C=C(Br)Br)c1Br` [Example 75, methyl-(E)-2-(2-((2-bromo-3-(2,2-dibromovinyl)-6-methoxyphenoxy)methyl)phenyl)-2-methoxyiminoacetate], the pest or weed control at 100 ppm stood at 40% with Botrytis cinerae (setting [2]); 100% with Phytophthora infestans (setting [3]); 100% in test [1] (setting [4]); 100% with Puccinia recondita (setting [8]); 100% in the test on Rhizoctonia solani AG-1 (setting [9]); 100% with Erysiphae graminis (setting [13]). Moreover, the pest or weed control at 2 ppm in the test on Phytophthora infestans (setting [3]) amounted to 70%; in test [1] (setting [4]), 30%; in the test on Puccinia recondita (setting [5]) it was 95%; with Rhizoctonia solani AG-1 (setting [9]) it was 65%; in the test on Erysiphae graminis (setting [10]), 92%. The pest or weed control at 10 ppm in the test with Phytophthora infestans (setting [3]) was determined as 90%; in test [1] (setting [4]), 90%; in the test on Puccinia recondita (setting [6]) it was 100%; in the test with Rhizoctonia solani AG-1 (setting [9]) it was 98%; with Erysiphae graminis (setting [11]), 98%. The pest or weed control at 50 ppm with Phytophthora infestans (setting [3]) came out at 98%; in test [1] (setting [4]), 100%; in the test on Puccinia recondita (setting [7]), 100%; in the test with Rhizoctonia solani AG-1 (setting [9]), 100%; in the test on Erysiphae graminis (setting [12]) it was 100%.
Regarding `CO/N=C(/C(=O)OC)c1ccccc1COc1ccc(C)cc1C=C(Br)Br` [Example 69, methyl-(E)-2-(2-((2-(2,2-dibromovinyl)-4-methylphenoxy)methyl)phenyl)-2-methoxyiminoacetate], the pest or weed control at 100 ppm with Botrytis cinerae (setting [2]) stood at 60%; in the test with Phytophthora infestans (setting [3]), 100%; in test [1] (setting [4]) it was 100%; with Puccinia recondita (setting [8]), 100%; with Rhizoctonia solani AG-1 (setting [9]), 100%; in the test with Erysiphae graminis (setting [13]), 100%. The pest or weed control at 2 ppm (with Phytophthora infestans (setting [3]); in test [1] (setting [4]); in the test on Puccinia recondita (setting [5]); with Rhizoctonia solani AG-1 (setting [9]); in the test on Erysiphae graminis (setting [10])) was 100% in each case. Moreover, the pest or weed control at 10 ppm (in the test with Phytophthora infestans (setting [3]); in test [1] (setting [4]); in the test on Puccinia recondita (setting [6]); in the test with Rhizoctonia solani AG-1 (setting [9]); in the test on Erysiphae graminis (setting [11])) was 100% in each case. The pest or weed control at 50 ppm (with Phytophthora infestans (setting [3]); in test [1] (setting [4]); with Puccinia recondita (setting [7]); in the test on Rhizoctonia solani AG-1 (setting [9]); with Erysiphae graminis (setting [12])) was 100% each time.
Take `CO/N=C(/C(=O)OC)c1ccccc1CON=C(C)c1cccc(C=C(Cl)Br)c1` [Example 35, methyl-(E)-2-[[[[[2-[3-(2-bromo-2-chlorovinyl)phenyl](1-methyl)methylidene]amino]oxy]methyl]phenyl]-2-methoxyiminoacetate]: in the test with Botrytis cinerae (cucumber gray mold rot), the “CGM control value (C.V.)” value is recorded as 50%. Also, the “TLB control value (C.V.)” value in the test with Phytophthora infestans (10 ppm) was 10%; in the test with Phytophthora infestans (50 ppm), 90%; in the test with Phytophthora infestans (100 ppm) it was 100%. Besides, the “RCB control value (C.V.)” value stood at 70% in test [1] (2 ppm), 100% in test [1] (10 ppm), 100% in test [1] (50 ppm) and 100% in test [1] (100 ppm). Besides, the “WLR control value (C.V.)” value with Puccinia recondita (2 ppm, wheat leaf rust) was 100%; in the test with Puccinia recondita (10 ppm, wheat leaf rust), 100%; with Puccinia recondita (50 ppm, wheat leaf rust), 100%; in the test with Puccinia recondita (100 ppm, wheat leaf rust), 100%. In the test with Rhizoctonia solani AG-1, the “RSB control value (C.V.)” value is recorded as 10%. The “BPM control value (C.V.)” value in the test with Erysiphae graminis (2 ppm, barley powdery mildew) was 15%; in the test on Erysiphae graminis (10 ppm, barley powdery mildew) it was 60%; with Erysiphae graminis (50 ppm, barley powdery mildew), 93%; with Erysiphae graminis (100 ppm, barley powdery mildew), 95%.
For the compound `CO/N=C(/C(=O)OC)c1ccccc1COc1ccccc1C` [Kresoxim-methyl, reference compound], the pest or weed control at 50 ppm in the test on Botrytis cinerae (Botrytis, 50 ppm, read-out: CGM control value (C.V.)) came to 30%; in the test on Phytophthora infestans (setting [3]), 100%; in test [1] (setting [4]), 100%; in the test with Puccinia recondita (setting [7]), 100%; with Rhizoctonia solani AG-1 (setting [9]), 100%; in the test on Erysiphae graminis (setting [12]), 100%. In addition, the pest or weed control at 0.4 ppm in the test with Phytophthora infestans (setting [3]) stood at 30%; in test [1] (setting [4]), 30%; with Puccinia recondita (Puccinia recondita, 0.4 ppm, read-out: WLR control value (C.V.)), 85%; in the test on Rhizoctonia solani AG-1 (setting [9]) it was 67%; in the test with Erysiphae graminis (168 h, 0.4 ppm, read-out: BPM control value (C.V.)) it was 95%. Further, the pest or weed control at 2 ppm in the test with Phytophthora infestans (setting [3]) turned out to be 80%; in test [1] (setting [4]), 60%; in the test on Puccinia recondita (setting [5]) it was 95%; in the test on Rhizoctonia solani AG-1 (setting [9]) it was 90%; in the test on Erysiphae graminis (setting [10]), 100%. The pest or weed control at 10 ppm in the test with Phytophthora infestans (setting [3]) came to 95%; in test [1] (setting [4]) it was 95%; with Puccinia recondita (setting [6]) it was 100%; with Rhizoctonia solani AG-1 (setting [9]), 98%; in the test on Erysiphae graminis (setting [11]), 100%.
`CO/N=C(/C(=O)OC)c1ccccc1COc1ccc(C=C(F)Cl)cc1` [Example 13, methyl-(2E)-2-(2-((4-(2-chloro-2-fluorovinyl)phenoxy)methyl)phenyl)-2-methoxyiminoacetate]: the pest or weed control at 100 ppm in the test on Botrytis cinerae (Botrytis, cucumber gray mold rot, read-out: CGM control value (C.V.)) came to 0%; in the test with Phytophthora infestans (setting [3]) it was 60%; in test [1] (setting [4]), 95%; in the test on Puccinia recondita (100 ppm, wheat leaf rust, read-out: WLR control value (C.V.)) it was 90%; in the test with Rhizoctonia solani AG-1 (setting [9]), 67%; in the test with Erysiphae graminis (Hordeum vulgare, 168 h, 100 ppm, barley powdery mildew, read-out: BPM control value (C.V.)), 75%. For the same compound, the pest or weed control at 50 ppm in test [1] (setting [4]) turned out to be 70%; with Puccinia recondita (50 ppm, wheat leaf rust, read-out: WLR control value (C.V.)), 40%.
On to `CO/N=C(/C(=O)OC)c1ccccc1COc1cc(Br)ccc1C=C(Br)Br` [Example 85, methyl-(E)-2-(2-((5-bromo-2-(2,2-dibromovinyl)phenoxy)methyl)phenyl)-2-methoxyiminoacetate], for which the pest or weed control at 100 ppm worked out at 35% with Botrytis cinerae (setting [2]); 100% in the test on Phytophthora infestans (setting [3]); 100% in test [1] (setting [4]); 100% in the test with Puccinia recondita (setting [8]); 99% in the test with Rhizoctonia solani AG-1 (setting [9]); 100% in the test on Erysiphae graminis (setting [13]). Also, the pest or weed control at 10 ppm in the test on Phytophthora infestans (setting [3]) was found to be 20%; in test [1] (setting [4]), 90%; with Puccinia recondita (setting [6]) it was 99%; in the test on Rhizoctonia solani AG-1 (setting [9]), 85%; with Erysiphae graminis (setting [11]) it was 70%. Further, the pest or weed control at 50 ppm in the test on Phytophthora infestans (setting [3]) was 100%; in test [1] (setting [4]), 100%; in the test on Puccinia recondita (setting [7]) it was 100%; in the test on Rhizoctonia solani AG-1 (setting [9]), 96%; with Erysiphae graminis (setting [12]), 97%. Moreover, the pest or weed control at 2 ppm in test [1] (setting [4]) is 70%; with Puccinia recondita (setting [5]), 80%; with Rhizoctonia solani AG-1 (setting [9]) it was 60%; in the test on Erysiphae graminis (setting [10]), 25%.
